Measured values: patent publication US20160038448A1, “THE INHIBITION OF THE TOXIC EFFECTS OF ISLET AMYLOID FORMATION BY FLURBIPROFEN AND FLURBIPROFEN DERIVATIVES” (The Research Foundation for the State University of New York, priority 2013, published 2016)
Changes are numbered by the printed parent chain. “Also recorded” adds a separate entry of the source. Where a SMILES comes first, the peptide text is derived from it. Bridges are numbered along the chain shown (N, C = ends).

Legend:
human IAPP [1] = molecular target: T1, human IAPP (Homo sapiens, UniProt P10997); experiment: Seeding experiments monitored by thioflavin-T; format: biochemical; details: 10% seeds by mass from 1:20 IAPP:flurbiprofen mixture
T1 construct: Mature, fully processed, Amylin is 37 residues in length, contains a disulfide bond between residues 2 and 7; made in house; host or cells: chemical solid-phase peptide synthesis (Fmoc), no expression host
T1 sequence (P10997 34-70 limits assumed): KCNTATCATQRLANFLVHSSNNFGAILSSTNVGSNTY
Method: Seeding experiments were conducted using the products of the experiment conducted with the mixture of flurbiprofen (20 parts) and human IAPP. Seeding refers to the addition of a small […] of pre-formed amyloid fibers to an initially unaggerated solution of polypeptide. Addition of the amyloid fibers leads to a by passing of the lag phase. […] 10% seeds, by mass, were added to unaggerated human IAPP and amyloid formation monitored by fluorescence detected thioflavin-T assays.

human IAPP [2] = molecular target: T1, human IAPP; experiment: One and two dimensional IR spectroscopy of fibers formed with flurbiprofen; details: IAPP:flurbiprofen 1:20; 0.5 mm human IAPP and 10 mM flurbiprofen
Method: One and two dimensional infrared (IR) spectroscopy was used to confirm the presence of beta-sheet structure. Amyloid is rich in beta-sheet structure. IR spectra were recorded of a mixture of […] human IAPP and 10 mM flurbiprofen.

rat INS-1 beta-cells = experiment: AlamarBlue cell viability of beta-cells given aliquots of the IAPP amyloid time course; format: cell-based; details: for presence and toxic effects of intermediates of amyloid formation: human IAPP with compound
Method: FIG. 5. […] (A) A thioflavin-T monitored time course of amyloid formation in the presence and absence of flurbiprofen. […] 20 mM Tris-HCl buffer with 0.25% DMSO was used as the control.
The presence of toxic intermediates is reduced when amyloid formation is accelerated by use of flurbiprofen or a flurbiprofen derivative. A thioflavin-T monitored time course of amyloid formation by human IAPP was conducted in the presence and absence of flurbiprofen. Aliquots were removed at various time points and applied to rat INS-1 beta-cells; at thirty minutes, at 12 hours, at 48 hours. Cell viability as judged by AlamarBlue assays. 20 mM Tris-HCl buffer with 0.25% DMSO was used as the control.

human IAPP [3] = molecular target: T1, human IAPP; experiment: Fluorescence detected thioflavin-T assay of the time course of amyloid formation; format: biochemical
Method: Peptides were first dissolved in 100% hexafluoroisopropanol (HFIP) at a concentration 1.6 mM and then filtered to remove any preformed amyloid aggregates. For thioflavin-T fluorescence assays, aliquots were lyophilized and redissolved in pH 7.4, 20 mM Tris-HCl buffer at the desired concentration. Aspirin and Ketoprofen were prepared in 100% dimethyl sulfoxide (DMSO).
Solutions were prepared by adding pH 7.4, 20 mM Tris buffer and thioflavin-T to lyophilized dry peptides for a final peptide concentration of […]. For the studies of Aspirin and Ketoprofen, 0.25% DMSO was present in the solution. Measurements were made at 25° C. using a Beckman Coulter DTX880 plate reader without stirring. An excitation filter of 430 nm and an emission filter of 485 nm were used. To test disaggregate activity of Aspirin, peptide was first incubated in low-binding 96-wells plate and monitored by plate reader to ensure the formation of amyloid fibrils.
A mixture of flurbiprofen (1-20 parts) and human IAPP (1 part) was monitored by fluorescence detected thioflavin-T assays. The assays monitored the time course of amyloid formation (amount vs time) in the presence and absence of flurbiprofen.
A mixture of OH-flurbiprofen and human IAPP were monitored by fluorescence detected thioflavin-T assays. Three different concentrations (1:1 ratio, 1:10 ratio and 1:20 ratio of IAPP to OH-flurbiprofen) were tested against human IAPP without any added OH-flurbiprofen. The assays monitored the time course of amyloid formation (amount vs time) in the presence and absence of a flurbiprofen derivative.
Three different mixtures of NSAIDs (20 parts) and human IAPP (1 parts) were compared to each other and human IAPP alone by fluorescence detected thioflavin-T assays. The assays monitored the time course of amyloid formation (amount vs time) in the presence and absence of aspirin, naproxen and flurbiprofen.

[4] = NMR spectra and pulse field gradient NMR diffusion (aggregation of the compound); format: physicochemical
Method: Flurbiprofen was dissolved at 32 micro molar and at 640 micromolar and Nuclear Magnetic Resonance (NMR) spectra were recorded.
A sample of 640 micromolar Flurbiprofen was prepared and pulse field gradient NMR experiments were conducted to determine the diffusion coefficient of the compound. The diffusion coefficient is directly related to the hydrodynamic radius of the compound. The NMR intensity decay curve was monitored for the methyl group NMR signal. The best fit to the data yields a hydrodynamic radius of 3.9 Å.

H18Q human IAPP = molecular target: T2, H18Q human IAPP (Homo sapiens, UniProt P10997, H51Q); experiment: Thioflavin-T assay of mutant human IAPP amyloid formation (H18Q); format: biochemical; details: 1:20 mixture of mutant with flurbiprofen
T2 construct: Mature, fully processed, Amylin is 37 residues in length, contains a disulfide bond between residues 2 and 7
T2 sequence (P10997 34-70 H51Q): T1 sequence (P10997 34-70 limits assumed) with H18Q
Excerpt: (§1) A mixture of flurbiprofen (20 parts) and human IAPP (1 part) was monitored by fluorescence detected thioflavin-T assays. The assays monitored the time course of amyloid formation (amount vs time) in the presence and absence of flurbiprofen. The effect of flurbiprofen in wild-type (WT) human IAPP, and in two mutants of human IAPP was monitored. In one mutant, all of the aromatic amino acids in human IAPP were replaced by […] human IAPP was examined. A second mutant in which […] human IAPP) was also tested.

[5] = system: human IAPP transgenic mouse islets; experiment: Amyloid formation induced in human IAPP transgenic mouse islets; format: cell-based; details: example in present tense
Excerpt: Amyloid formation is induced in human IAPP transgenic mouse islets in the presence and absence of flurbiprofen or a flurbiprofen derivative.

[6] = system: 3XL-IAPP mutant (F15L, F23L, Y37L human IAPP); experiment: Thioflavin-T assay of mutant human IAPP amyloid formation (3XL); format: biochemical; details: WT human IAPP and mutant IAPP compared
Excerpt: as §1

[7] = molecular target: T3, 3XL-IAPP mutant (F15L, F23L, Y37L human IAPP) (Homo sapiens, UniProt P10997, F48L/F56L/Y70L); experiment: as above; format: biochemical; details: 1:20 mixture of mutant with flurbiprofen
T3 construct: Mature, fully processed, Amylin is 37 residues in length, contains a disulfide bond between residues 2 and 7
T3 sequence (P10997 34-70 F48L/F56L/Y70L): T1 sequence (P10997 34-70 limits assumed) with F15L, F23L, Y37L
Excerpt: as §1

[8] = molecular target: T4, I26P human IAPP point mutant (Homo sapiens, UniProt P10997, I59P); experiment: Thioflavin-T assay and TEM with non-amyloidogenic point mutant; format: biochemical; details: 20 fold excess of Flurbiprofen; vesicles as control experiment
T4 construct: Mature, fully processed, Amylin is 37 residues in length, contains a disulfide bond between residues 2 and 7
T4 sequence (P10997 34-70 I59P): T1 sequence (P10997 34-70 limits assumed) with I26P
Method: The […] human IAPP point mutant was incubated with Flurbiprofen (20 fold excess of Flurbiprofen) and the mixture was monitored by fluorescence detected thioflavin-T assays. […] Transmission electron microscopy was used to confirm the absence of amyloid. The […] human IAPP point mutant was incubated with 100 nm vesicles composed of 100% anionic lipids as a control experiment. The mixture was monitored by fluorescence detected thioflavin-T assays. […] Transmission electron microscopy was used to confirm the presence of amyloid.

A-beta(1-40) = molecular target: T5, A-beta(1-40) (Homo sapiens, UniProt P05067); experiment: Thioflavin-T assay of A-beta(1-40) amyloid formation; format: biochemical; details: flurbiprofen 20 parts, A-beta(1-40) 1 part
T5 construct: A mixture of flurbiprofen (20 parts) and A-beta(1-40) (1 part)
T5 sequence (P05067 672-711): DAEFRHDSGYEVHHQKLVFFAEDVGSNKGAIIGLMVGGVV
Excerpt: A mixture of flurbiprofen (20 parts) and A-beta(1-40) (1 part) was monitored by fluorescence detected thioflavin-T assays. The assays monitored the time course of amyloid formation (amount vs time) in the presence and absence of flurbiprofen.

[9] = system: human islet cell transplants; experiment: Mice transplanted with human islet cell transplants; format: in vivo, mouse; details: example in present tense
Method: Mice transplanted with human islet cell transplants are treated with flurbiprofen or a flurbiprofen derivative.

[10] = Marek at al. 2007; cited from earlier work
[11] = Parallel biophysical and cell viability experiments on h-IAPP variants; format: cell-based
Method: Parallel biophysical and cell viability experiments were conducted using a range of conditions that alter the length of the lag phase. h-IAPP amyloid kinetics are concentration-dependent. Decreasing the peptide concentration leads to an increase in the length of the lag phase, while an increase in human-IAPP concentration leads to a shortening of the lag phase. The length of the lag phase can also be controlled by altering the temperature. Lower temperatures lead to a longer lag phase; the lag phase is 2-fold longer at 15° C. […] A set of rationally designed Ser-20 mutations were used. Ser-20 is located at a critical position in the h-IAPP sequence and modulates its aggregation kinetics. […] Toxicity and kinetics experiments were performed on the Ser-20 mutants. […] An human-IAPP triple mutant, 3×L-IAPP, in which Leu replaced the three aromatic residues (Phe-15, Phe=23 and Tyr-37) was tested. This mutant forms amyloid 9-fold more slowly than wild type human IAPP (Marek at al. 2007). […] The duration of toxicity for all the mutants and for all the conditions with human IAPP wild type correlated with the length of the respective lag phases.

**Q.** What does the source list for `CC(C(=O)O)c1ccc(-c2ccccc2)c(F)c1` (racemic) [Flurbiprofen, (RS)-2-(2-fluorobiphenyl-4-yl)propanoic acid]?
**A.** seeding of human IAPP amyloid formation by fibers formed with flurbiprofen (human IAPP [1]): extremely effective at seeding amyloid formation by human IAPP; β-structure of flurbiprofen induced aggregates (IR) (human IAPP [2]): rich in β-structure; protection of β-cells against IAPP induced toxicity (cell viability, AlamarBlue) (rat INS-1 beta-cells; aliquots at thirty minutes, 12 hours, 48 hours of IAPP time course with and without flurbiprofen): protects β-cells against IAPP induced toxicity; presence and toxic effects of intermediates of amyloid formation (rat INS-1 beta-cells): reduced the presence and toxic effects of intermediates of amyloid formation in a dose dependent fashion; presence and toxic effects of intermediates of amyloid formation (rat INS-1 beta-cells; listed as Flurbiprofen racemate): reduced the presence and toxic effects of intermediates of amyloid formation; presence and toxic effects of intermediates of amyloid formation (rat INS-1 beta-cells; listed as flurbiprofen): reduced; effect on human IAPP amyloid formation (thioflavin-T time course) (human IAPP [3]; 1:1 ratio of human IAPP and compound): showed acceleration of amyloid formation; effect on human IAPP amyloid formation (thioflavin-T time course) (human IAPP [3]; 20 to 1 ratio of compound to human IAPP): strongest effect of accelerating human IAPP amyloid formation; effect on human IAPP amyloid formation (thioflavin-T time course) (human IAPP [3]; 20 to 1 ratio of compound to human IAPP, listed as Flurbiprofen racemate): accelerated islet amyloid formation; effect on human IAPP amyloid formation (thioflavin-T time course) (human IAPP [3]; 20 to 1 ratio of compound to human IAPP, listed as racemic mixture): equally effective; effect on human IAPP amyloid formation (thioflavin-T time course) (human IAPP [3]; IAPP:compound ratios 1:1 to 1:20, pH 7.4, 20 mM Tris, 25° C.): accelerated islet amyloid formation; aggregation state of the compound (NMR peak positions and line widths) ([4]; 32 and 640 micro molar samples): independent of the concentration of the compound; also recorded: did not aggregate; also recorded: monomeric; hydrodynamic radius (PFG-NMR) ([4]; 640 micromolar, methyl resonance decay curve): 3.9 Å; effect on amyloid formation by H18Q-IAPP mutant (H18Q human IAPP): accelerates amyloid formation; effect on amyloid formation by H18Q-IAPP mutant (H18Q human IAPP; listed as flurbiprofen): effected the mutant the same way as it did the wild type; toxic effects of amyloid formation in islets [5]: reduces the toxic effects of amyloid formation; acceleration of amyloid formation and reduction of toxic effects of intermediates, WT human IAPP versus mutant IAPP [6]: about equally; effect on amyloid formation by 3XL-IAPP mutant [7]: had the same effect; also recorded: accelerates amyloid formation; induction of amyloid formation by I26P-IAPP (thioflavin-T, TEM) [8]: No increase in fluorescence is detected; also recorded: did not induced amyloid formation; also recorded: does not induce the non-amyloidogenic point mutant I26P-IAPP to form amyloid fibers; effect on A-beta(1-40) amyloid formation kinetics (A-beta(1-40)): did not influence the kinetics of amyloid formation by A-beta(1-40); also recorded: does not accelerate amyloid formation by the Aβ1-40 peptide; survival of islet cell transplants [9]: enhances the survival of the islet cell transplants

**Q.** Which results are given for `CC[C@H](C)[C@H](NC(=O)[C@H](C)NC(=O)CNC(=O)[C@H](CC(C)C)NC(=O)[C@H](CC(N)=O)NC(=O)[C@H](CC(N)=O)NC(=O)[C@H](CO)NC(=O)[C@H](CO)NC(=O)[C@H](Cc1c[nH]cn1)NC(=O)[C@@H](NC(=O)[C@H](CC(C)C)NC(=O)[C@H](CC(C)C)NC(=O)[C@H](CC(N)=O)NC(=O)[C@H](C)NC(=O)[C@H](CC(C)C)NC(=O)[C@H](CCCNC(=N)N)NC(=O)[C@H](CCC(N)=O)NC(=O)[C@@H](NC(=O)[C@H](C)NC(=O)[C@@H]1CSSC[C@H](NC(=O)[C@@H](N)CCCCN)C(=O)N[C@@H](CC(N)=O)C(=O)N[C@@H]([C@@H](C)O)C(=O)N[C@@H](C)C(=O)N[C@@H]([C@@H](C)O)C(=O)N1)[C@@H](C)O)C(C)C)C(=O)N[C@@H](CC(C)C)C(=O)N[C@@H](CO)C(=O)N[C@@H](CO)C(=O)N[C@H](C(=O)N[C@@H](CC(N)=O)C(=O)N[C@H](C(=O)NCC(=O)N[C@@H](CO)C(=O)N[C@@H](CC(N)=O)C(=O)N[C@H](C(=O)N[C@@H](CC(C)C)C(N)=O)[C@@H](C)O)C(C)C)[C@@H](C)O` [3×L-IAPP] (H-KCNTATCATQRLANLLVHSSNNLGAILSSTNVGSNTL-NH2; disulfide 2-7)?
**A.** amyloid formation slower than wild type human IAPP [10]: 9 fold; onset and duration of toxicity relative to wild type human IAPP [11]: longer duration of toxicity
